The test system of one data set is Rattus norvegicus. The data set is described as follows: Dose normalized AUC (0 to infinity) in Han-Wistar rat at 2.1 mg/kg, po. It is filed as ADME, organism-based. Particulars: in vivo.
Data set [1] addresses T1, Glucocorticoid receptor (Homo sapiens) (UniProt P04150).
T1 sequence (whole entry): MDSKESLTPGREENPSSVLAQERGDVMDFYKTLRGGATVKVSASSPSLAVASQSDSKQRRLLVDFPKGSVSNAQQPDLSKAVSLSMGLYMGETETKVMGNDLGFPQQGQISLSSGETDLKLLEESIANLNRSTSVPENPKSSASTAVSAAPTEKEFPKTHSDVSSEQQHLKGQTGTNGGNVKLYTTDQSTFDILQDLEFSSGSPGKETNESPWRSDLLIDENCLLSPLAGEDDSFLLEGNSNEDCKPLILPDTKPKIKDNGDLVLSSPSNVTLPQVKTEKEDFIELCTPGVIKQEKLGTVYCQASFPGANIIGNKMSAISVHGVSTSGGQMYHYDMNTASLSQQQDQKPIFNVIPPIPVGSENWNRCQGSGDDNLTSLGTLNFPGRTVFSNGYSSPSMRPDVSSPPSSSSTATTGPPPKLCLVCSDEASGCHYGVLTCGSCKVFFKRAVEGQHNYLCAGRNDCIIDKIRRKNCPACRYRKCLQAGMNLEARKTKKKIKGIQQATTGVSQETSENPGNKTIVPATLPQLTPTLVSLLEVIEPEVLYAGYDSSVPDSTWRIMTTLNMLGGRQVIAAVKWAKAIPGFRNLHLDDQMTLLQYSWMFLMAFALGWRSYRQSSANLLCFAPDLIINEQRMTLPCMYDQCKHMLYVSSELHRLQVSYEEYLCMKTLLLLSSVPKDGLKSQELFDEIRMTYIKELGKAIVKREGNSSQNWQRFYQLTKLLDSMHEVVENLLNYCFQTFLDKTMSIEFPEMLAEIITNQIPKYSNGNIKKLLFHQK
Description: Transrepression of GR in human whole blood assessed as inhibition of LPS-induced TNF-alpha release preincubated for 45 mins followed by LPS addition after 18 hrs by AlphaLISA method

For data set [2], the target named is T2, Glucocorticoid receptor (Homo sapiens, UniProt P04150).
T2 sequence (P04150 whole entry): T1 sequence (whole entry)
The conditions noted are these: blood.
Description: Therapeutic index, ratio of fIC20 for transrepression of GR in cryopreserved human fetal osteoblasts assessed as inhibition of OPG mRNA expression to fIC30 for transrepression of GR in human whole blood assessed as inhibition of LPS-induced TNF-alpha release

Data set [3] can be described thus: Volume of distribution at steady state in Han-Wistar rat at 0.8 mg/kg, iv. The data set is classed as ADME, organism-based. The conditions noted are these: in vivo, read-out: Vdss.
In data set [4] the target is T2, Glucocorticoid receptor.
Description: Transrepression activity at glucocorticoid receptor (unknown origin) expressed in human ChaGoK1 cells assessed as inhibition of PMA-stimulated gene expression incubated for 24 hrs by beta-galactosidase reporter gene assay
Data set [5] deals with T1, Glucocorticoid receptor (Homo sapiens). The source holds these as a separate data set.
Description: Transrepression of GR in cryopreserved human fetal osteoblasts assessed as inhibition of OPG mRNA expression after 4 hrs by RT-qPCR analysis
In data set [6] the target is T2, Glucocorticoid receptor. The source holds these as a separate data set.
Description: Transactivation activity at glucocorticoid receptor (unknown origin) expressed in human ChaGoK1 cells incubated for 24 hrs by beta-galactosidase reporter gene assay

By IC50 is commonly meant the concentration at which inhibition is half-maximal. Low readings indicate greater potency in that assay, high ones weaker potency in that assay. By EC50 is commonly meant the concentration at which the effect is half-maximal. Read a low EC50 as an effect from little substance.

With `CC(C)[C@H](NC(=O)C(C)(F)F)[C@H](Oc1ccc2c(cnn2-c2ccc(=O)n(C)c2)c1)c1ccccc1` [MIZACORAT], in the data set with Rattus norvegicus, the AUC/dose came out at 5.2 µM·h. Besides, the fIC30 in data set [1] is 1.4 nM. At Glucocorticoid receptor [2], this compound showed a TI of 0.55. Moreover, the Vd in data set [3] stood at 0.66 L/kg. At Glucocorticoid receptor [4], this compound showed a half-maximal inhibitory concentration (IC50) of 7 nM. For the same compound, the fIC20 in data set [5] was found to be 0.74 nM. The EC50 at Glucocorticoid receptor [6] worked out at 11 nM.

(Values after ChEMBL document CHEMBL4190372, “Discovery of a Novel Oral Glucocorticoid Receptor Modulator (AZD9567) with Improved Side Effect Profile” (J Med Chem, 2018).)
